Results reported in patent US10179770B2, “Quinolines derivatives as novel anticancer agents” (GENOSCIENCE PHARMA, priority 2013, dated 2019).

Experiments:
HL60 = assay: CellTiter-Glo cell viability assay (example 57); assay type: cell-based; settings: Homo sapiens, HL-60; HL60 (Leukemia); Cell Titer-Glo; 72 h
Procedure: (§1) The human breast cancer cell line SkBr3 and the human metastatic prostate carcinoma cell line LnCAP were cultured in Dulbecco's modified Eagle's medium (DMEM) supplemented with 10% fetal bovine serum (FBS) and 0.1% sodium pyruvate. The human myelocytic cell line U937 and NB4 were maintained in RPMI medium 1640 1× (Gibco 21875-034) supplemented with 10 % Fetal Bovine Serum (FBS, Eurobio S39130-0808) Kasumi and SKM-1 were maintained in RPMI medium 1640 1× (Gibco 21875-034) supplemented with 20 % Fetal Bovine Serum (FBS, Eurobio S39130-0808), HL60 was maintained in Iscove's modified Dulbecco's medium 1× (IMDM, Gibco 21890) supplemented with 20% Fetal Bovine Serum (FBS, Eurobio S39130-0808), cell line was maintained in MEM alpha medium (Gibco 22561-021) supplemented with 10% FBS at 37° C. with 5% CO2. Cell outgrowth was measured using the CellTiter-Glo luminescent cell viability assay as described by the manufacturer (Promega, Ref G7571 Madison, Wis., USA) using a FLUOstar optima luminometer (BMG Labtech, Ortenberg, Germany).
(§2) Briefly, for adherent cells, 10^4 cells were plated onto 96-well plates (white with clear bottom (3610, Corning Costar) in 100 μL of media per well and were allowed to grow overnight before the assay. For cells growing in suspension, 10^4 cells were plated onto 96-well plates immediately before the assay. […] Vehicle (DMSO) was used as a control, and all compounds were tested in a constant percentage of DMSO (1%). After addition of 50 μL of CellTiter GLO, luminescence was measured using a Centro luminometer (Berthold). EC50 values were determined as the dose of compound required to reduce luminescent values to 50% of the signal obtained for untreated cell cultures. All experiments were done in duplicate and repeated two independent times.

Kasumi-1 = assay: CellTiter-Glo cell viability assay (example 57); assay type: cell-based; settings: Homo sapiens; Kasumi-1 (Leukemia); Cell Titer-Glo; 72 h
Procedure: as §1, §2

LNCaP = assay: CellTiter-Glo cell viability assay (example 57); assay type: cell-based; settings: Homo sapiens; LNCaP (Prostate); Cell Titer-Glo; 72 h
Procedure: as §1, §2

NB4 = assay: CellTiter-Glo cell viability assay (example 57); assay type: cell-based; settings: Homo sapiens, NB-4; NB4 (Leukemia); Cell Titer-Glo; 72 h
Procedure: as §1, §2

SKM-1 = assay: CellTiter-Glo cell viability assay (example 57); assay type: cell-based; settings: Homo sapiens; SKM-1 (Leukemia); Cell Titer-Glo; 72 h
Procedure: as §1, §2

SkBr3 = assay: CellTiter-Glo cell viability assay (example 57); assay type: cell-based; settings: Homo sapiens, SK-BR-3; SkBr3 (Breast); Cell Titer-Glo; 72 h
Procedure: as §1, §2

U937 = assay: CellTiter-Glo cell viability assay (example 57); assay type: cell-based; settings: Homo sapiens, U-937; U937 (Leukemia); Cell Titer-Glo; 72 h
Procedure: as §1, §2

U87-MG = assay: CellTiter 96 Aqueous One Solution (MTS) cell proliferation assay; assay type: cell-based; settings: Homo sapiens, U-87 MG; U87-MG (Glioma); Cell Titer 96 Aqueous One Solution; 72 h; mean of seven independent triplicate assays
Procedure: The human glioblastoma cell line U87-MG was cultured in Minimum Essential Medium (Life Invitrogen, 31095029) supplemented with 10% fetal bovine serum (GIBCO, 10500-056) and 1 % penicillin-streptomycin (GIBCO, 15140-122). Flasks and plated used for the cell culture were coated with 25 μg/mL poly-D-lysine (Sigma, P7280).
Cell outgrowth was measured using a tetrazolium compound (3-[4,5-dimethylthiazol-2-yl]-5-[3-carboxymethoxyphenyl]-2-[4-sulfophenyl]-2H tetrazolium, inner salt [MTS]) from the CellTiter 96® Aqueous One Solution Cell Proliferation Assay (Promega, Ref G3580) and according to the manufacturer procedure.
5000 cells were plated onto 96-well plates in 100 μL of media per well and were allowed to grow overnight before the assay. Compounds were added at different concentrations to each well, and cell cultures were incubated for 72 h. Control compound was the diluent used for compound resuspension (H2O). After addition of 20 μL of CellTiter 96® Aqueous One Solution, absorbance at 492 nm was measured using a microplate reader Sunrise (Tecan). EC50 values were determined as the dose of compound required to reduce […] values to 50% of the signal obtained for untreated cell cultures. […] The experimental data are analyzed using a computer program, Graphpad Prism (GraphPad Software, Inc. La Jolla, Calif.).

MOLM-14 cell line = assay: Combination of XXIV-3 and Cytarabine, Bliss independence model; assay type: cell-based, human; settings: XXIV-3 associated with Cytarabine, 72 h
Procedure: The human leukemia cell line MOLM-14 was cultured in Minimum Essential Medium Alpha Medium (MEM) supplemented with 10% Fetal Bovine Serum (FBS) and 1% Penicillin-Streptomycin and maintained at 37° C. with 5% CO2. 30,000 cells in 180 μL of MEM 5% FBS 1% P/S were plated onto 96-well plates immediately before the assay. Compounds were added at different concentrations (combinations of five concentrations of XXIV-3 and six concentrations of Cytarabine) to each well, and cell cultures were incubated for 72 h. Vehicle (H2O) was used as a control, and all compounds were tested in a constant percentage of vehicle. Cell outgrowth was measured using the CellTiter-Glo luminescent cell viability assay as described by the manufacturer (Promega, Ref G7571 Madison, Wis., USA) using an Infinite F200 Pro TECAN plate reader. […]
The effects of drug-drug combinations are evaluated in the Bliss independence model (Prichard M. N. and Shipman C. Jr. Antivir. Res. 1990 (14) 181-205; Prichard, M. L. et al. Antimicrob Agents Chemother 1993(37) 540-545). The theoretical additive effect is calculated from the dose-response curves of individual compounds by the equation: Z=X+Y(1−X) (7) Where: • Z represents the total inhibition produced by the combination of drugs X and Y. • X and Y represent the inhibition produced by drugs X and Y alone, respectively. […]

SMILES | EC50 (HL60) | EC50 (Kasumi-1) | EC50 (LNCaP) | EC50 (NB4) | EC50 (SKM-1) | EC50 (SkBr3) | EC50 (U937) | EC50 (U87-MG) | Combination effect on cell viability (Bliss independence model) (MOLM-14 cell line)
CCN(CC)C1CCN(C(C)c2cc(-c3ccccc3)nc3ccccc23)CC1.Cl.Cl (stereo not drawn) [XIX-3, 2-phenyl-4-{1-[4-(N,N-diethylamino)piperidin-1-yl]-eth-1-yl}quinoline dihydrochloride] | 40 µM | 30 µM | 25 µM | 37 µM | 30 µM | 20 µM | 35 µM | 26 µM | 
CCN(CC)C1CCN(C(C)c2cc(-c3ccc4ccccc4c3)nc3ccccc23)CC1.Cl.Cl (stereo not drawn) [XXIV-3, 2-(2-naphtyl)-4-{1-[4-(N,N-diethylamino)-piperidin-1-yl]-eth-1-yl}quinoline dihydrochloride] |  |  |  |  |  |  |  |  | additive effect (between −20% to +20% indicates additive effect)
